Earlier results on four molecules are cited in patent US9848760B2, “Devices for continual monitoring and introduction of gastrointestinal microbes” (Gearbox, LLC, priority 2009, dated 2017).

The test system of data set [1] is enterotoxigenic Escherichia coli (ETEC). The conditions noted are these: ETEC infection, MIC90 level, FIG. 17.
The test system of data set [2] is intestinal microbes.
The mark [3] stands for this setting: infant stool, associated with treatment.
Where [4] appears, read: infant treated at 4 months of age, relative to reference microbial profile at 1 month of age.

For `CC1(C)S[C@@H]2[C@H](NC(=O)[C@H](N)c3ccccc3)C(=O)N2[C@H]1C(=O)O` [AMP, ampicillin], the MIC values entry in data set [1] is on record as “high”.

On to `COc1cc(Cc2cnc(N)nc2N)cc(OC)c1OC` [TMP, trimethoprim], for which the MIC values entry in data set [1] is “high”.

On to `CC1(C)S[C@@H]2[C@H](NC(=O)[C@H](N)c3ccc(O)cc3)C(=O)N2[C@H]1C(=O)O` [amoxicillin], for which, in data set [2] (setting [3]), the abundance of bacilli entry is “increases” and the “abundance of gamma proteobacteria” value is “reductions”. Also, in data set [2] (setting [4]), the “bacterial composition in stool samples” value is “altered” and the “total bacterial density in stool samples” value is on record as “decrease”.

As to TMP/sulfamethoxazole [SXT], in data set [1], the MIC values result is “high”.
